According to patent publication US12653190B2, “Heteroaryl-triazole compounds as pesticides” (Bayer Aktiengesellschaft, priority 2020, dated 2026):

Experiments:
Type in all cases: in vivo
[1] = system: Rhipicephalus (Boophilus) microplus larvae (strain Parkhurst, resistant against synthetic pyrethroids); experiment: Rhipicephalus (Boophilus) microplus in-vitro contact test, larval cattle tick; details: 5 μg/cm^2 (=500 g/ha), after 48 hours, read-out: efficacy (larvae dead or moribund)
Experimental: Rhipicephalus (Boophilus) microplus—In-Vitro Contact Tests Larval Cattle Tick (Strain Parkhurst, Resistant Against Synthetic Pyrethroids)
9 mg compound is solved in 1 mL acetone and diluted with acetone to the desired concentration. 250 μL of the test solution is filled in 25 mL glass test tubes and homogeneously distributed on the inner walls by rotation and tilting on a shaking device (2 h at 30 rpm). With a compound concentration of 900 ppm, an inner surface of 44.7 cm^2 and a homogeneous distribution, a dose of 5 μg/cm^2 is achieved.
After the solvent has evaporated, each test tube is filled with 20-50 cattle tick larvae (Rhipicephalus microplus), closed with a perforated lid and incubated in a horizontal position at 85% relative humidity and 27° C. in an incubator. After 48 hours efficacy is determined. The larvae are patted on the ground of the tubes and negative geotactic behavior is recorded.
An efficacy of 100% means all larvae are dead or moribund; 0% means no larvae are dead or moribund.

[2] = system: larvae of the banded cucumber beetle (Diabrotica balteata); experiment: Diabrotica balteata spray test; details: 168 h, 100 g/ha (=32 μg/well), after 7 days, wheat seeds, read-out: efficacy (seedling growth)
Experimental: Diabrotica balteata—Spray Test
(§1) • Solvent: 78.0 parts by weight of acetone • 1.5 parts by weight of dimethylformamide • Emulsifier: alkylarylpolyglycol ether
(§2) To produce a suitable preparation of active compound, 1 part by weight of active compound is mixed with the stated amount of solvent, and the concentrate is diluted with water, containing an emulsifier concentration of 1000 ppm, to the desired concentration. Further test concentrations are prepared by dilution with emulsifier containing water.
Soaked wheat seeds (Triticum aestivum) are placed in a multiple well plate filled with agar and some water and are incubated for 1 day to germinate (5 seeds per well). The germinated wheat seeds are sprayed with a test solution containing the desired concentration of the active ingredient. Afterwards each unit is infected with 10-20 larvae of the banded cucumber beetle (Diabrotica balteata).
After 7 days efficacy in % is determined. 100% means all the seedlings have grown up like in the untreated, uninfected control; 0% means none of the seedlings have grown.

[3] = system: fall armyworm larvae (Spodoptera frugiperda); experiment: Spodoptera frugiperda spray test; details: in Zea mays, 168 h
Experimental: Spodoptera frugiperda—Spray Test
(§3) • Solvent: 78.0 parts by weight acetone • 1.5 parts by weight dimethylformamide • Emulsifier: alkylarylpolyglycol ether
as §2, with “solvents” for “solvent,”, “and” for “and the concentrate”
Maize (Zea mays) leaf sections are sprayed with a preparation of the active ingredient of the desired concentration. Once dry, the leaf sections are infested with fall armyworm larvae (Spodoptera frugiperda). After 7 days mortality in % is determined. 100% means all caterpillars have been killed and 0% means none of the caterpillars have been killed.

[4] = system: green peach aphid (Myzus persicae); experiment: Myzus persicae spray test; details: foliar, 120 h, after 5 days, Chinese cabbage leaf disks
Experimental: Myzus persicae—Spray Test
as §3
as §2, with “solvents” for “solvent,”, “and” for “and the concentrate”
Chinese cabbage (Brassica pekinensis) leaf disks infected with all instars of the green peach aphid (Myzus persicae), are sprayed with a preparation of the active ingredient of the desired concentration.
After 5 days mortality in % is determined. 100% means all aphids have been killed and 0% means none of the aphids have been killed.

[5] = system: larvae of the southern green stink bug (Nezara viridula); experiment: Nezara viridula spray test; details: 96 h, after 4 days, barley plants
Experimental: Nezara viridula—Spray Test
as §1, §2
Barley plants (Hordeum vulgare) are sprayed with a test solution containing the desired concentration of the active ingredient and are infested with larvae of the southern green stink bug (Nezara viridula).
After 4 days mortality in % is determined. 100% means all the stink bugs have been killed; 0% means none of the stink bugs have been killed.

[6] = system: adult engorged female ticks (Rhipicephalus microplus); experiment: Rhipicephalus (Boophilus) microplus injection test; details: 168 h, egg deposition monitored after 7 days, read-out: efficacy (infertile eggs); for pest or weed control at 4 µg/tick: 4 μg/tick injected; for pest or weed control at 20 µg/tick: 20 μg/tick injected
Experimental: Rhipicephalus (Boophilus) microplus—Iniectiontest
• Solvent: dimethyl sulfoxide
To produce a suitable preparation of active compound, 10 mg of active compound are dissolved in 0.5 mL solvent, and the concentrate is diluted with solvent to the desired concentration.
Five adult engorged female ticks (Rhipicephalus microplus) are injected with 1 μL compound solution into the abdomen. The ticks are transferred into replica plates and incubated in a climate chamber.
After 7 days egg deposition of fertile eggs is monitored. Eggs where fertility is not visible are stored in a climate chamber till hatching after about 42 days. An efficacy of 100% means all eggs are infertile; 0% means all eggs are fertile.

[7] = system: adult mosquitoes Aedes aegypti strain MONHEIM; experiment: Aedes aegypti test (AEDSAE surface treatment & contact assay); details: surface concentration 20 mg/m^2, 30 minutes exposure, 24 hours after contact, read-out: efficacy (mortality)
Experimental: Aedes aegypti Test (AEDSAE Surface Treatment & Contact Assay)
• Solvent: Aceton+2000 ppm rapeseed oil methyl ester (RME)
In order to produce a sufficient, active ingredient containing solution it is necessary to solve the test compound in the solvent-mix (acetone at 2 mg/ml/RME 2000 ppm). This solution is pipetted onto a glazed tile and after evaporation of the acetone, adult mosquitoes of the species Aedes aegypti strain MONHEIM are placed onto the dried surface. The exposure time is 30 minutes.
Mortality in percent (%) is determined 24 hours after contact of the insects to the treated surface. 100% mortality means that all tested insects are dead, whereas 0% means that no insect died.

Compound | pest or weed control at 32 µg/disc, 100 g/ha [2] [%] | mortality at 100 g/ha [3] [%] | pest or weed control at 4 µg/tick [6] [%] | other results
C[C@H](NC(=O)c1cc(OCC=C(Cl)Cl)cc(C(F)(F)F)c1)c1ncnn1-c1ccc(C#N)cn1 [Example I-26] | 100 |  |  | pest or weed control at 5 µg/cm2, 5 µg/cm2 [1]: 100%
Cc1nc([C@H](C)NC(=O)c2cc(Cl)cc(C(C)(C)C#N)c2)n(-c2ncc(C(=O)N(C)C)s2)n1 [Example I-40] | 80 | 100 |  | mortality at 100 g/ha [4]: 90%
C[C@H](NC(=O)c1cc(OC2CC2)cc(OC(F)(F)F)c1)c1nc(C2CC2)nn1-c1ncc(C#N)s1 [Example I-65] |  |  |  | pest or weed control at 5 µg/cm2, 5 µg/cm2 [1]: 100%
C[C@H](NC(=O)c1cc(Cl)nc(C(C)(C)C#N)c1)c1ncnn1-c1cc(C#N)ncn1 [Example I-75] | 100 | 100 |  | mortality at 500 g/ha [5]: 100%
C[C@H](NC(=O)c1cc(Cl)nc(C(C)(C)C#N)c1)c1ncnn1-c1ncc(C#N)s1 [Example I-71] | 100 | 100 |  | mortality at 500 g/ha [5]: 100%
C[C@H](NC(=O)c1cc(OC2CC2)cc(OC(F)(F)F)c1)c1ncnn1-c1ncc(C#N)s1 [Example I-64] | 100 | 100 |  | mortality at 500 g/ha [5]: 100%
Cc1nc([C@H](C)NC(=O)c2cc(OCc3ccccc3)cc(C(F)(F)F)c2)n(-c2ccc(C#N)cn2)n1 [Example I-18, 3-(Benzyloxy)-N-{(1S)-1-[1-(5-cyanopyridin-2-yl)-3-methyl-1H-1,2,4-triazol-5-yl]ethyl}-5-(trifluoromethyl)benzamide] | 100 |  | 100 | 
CC(C)c1cc(C(=O)N[C@@H](C)c2ncnn2-c2ccc(C#N)cn2)cc(C(C)(C)C#N)c1 [Example I-48] | 100 | 83 |  | pest or weed control at 5 µg/cm2, 5 µg/cm2 [1]: 100%
Cc1nc([C@H](C)NC(=O)c2cc(OCc3ccc(Cl)cc3)cc(C(F)(F)F)c2)n(-c2ccc(C#N)cn2)n1 [Example I-20, 3-[(4-Chlorobenzyl)oxy]-N-{(1S)-1-[1-(5-cyanopyridin-2-yl)-3-methyl-1H-1,2,4-triazol-5-yl]ethyl}-5-(trifluoromethyl)benzamide] |  |  | 100 | 
Cc1nc([C@H](C)NC(=O)c2cc(OC(C)c3ccccc3Cl)cc(C(F)(F)F)c2)n(-c2ccc(C#N)cn2)n1 (stereo partly drawn) [Example I-14, 3-[1-(2-Chlorophenyl)ethoxy]-N-{(1S)-1-[1-(5-cyanopyridin-2-yl)-3-methyl-1H-1,2,4-triazol-5-yl]ethyl}-5-(trifluoromethyl)benzamide] |  |  | 100 | pest or weed control at 20 µg/tick [6]: 100%
Cc1nc([C@H](C)NC(=O)c2cc(Cl)nc(C(C)(C)C#N)c2)n(-c2ncc(C#N)s2)n1 [Example I-70] | 100 | 100 |  | mortality at 500 g/ha [5]: 100%
C[C@H](NC(=O)c1cc(OCC(Cl)=C(Cl)Cl)cc(C(F)(F)F)c1)c1ncnn1-c1ncc(C#N)s1 [Example I-28] | 100 | 100 | 100 | pest or weed control at 5 µg/cm2, 5 µg/cm2 [1]: 100%
C[C@H](NC(=O)c1cc(OC(F)(F)F)cc(C(C)(C)C#N)c1)c1ncnn1-c1ncc(C(=O)N(C)C)s1 [Example I-73] | 100 | 100 |  | mortality at 100 g/ha [4]: 100%; mortality at 500 g/ha [5]: 100%
Cc1nc([C@H](C)NC(=O)c2cc(OC(C)c3cccc(Cl)c3)cc(C(F)(F)F)c2)n(-c2ccc(C#N)cn2)n1 (stereo partly drawn) [Example I-12, 3-[1-(3-Chlorophenyl)ethoxy]-N-{(1S)-1-[1-(5-cyanopyridin-2-yl)-3-methyl-1H-1,2,4-triazol-5-yl]ethyl}-5-(trifluoromethyl)benzamide] |  |  | 100 | pest or weed control at 20 µg/tick [6]: 100%
C[C@H](NC(=O)c1cc(CC#N)cc(OC(F)(F)F)c1)c1ncnn1-c1ncc(C#N)s1 [Example I-54] |  | 100 |  | pest or weed control at 5 µg/cm2, 5 µg/cm2 [1]: 90%
Cc1nc([C@H](C)NC(=O)c2cc(O)cc(C(F)(F)F)c2)n(-c2ccc(C#N)cn2)n1 [Example I-47, N-{(1S)-1-[1-(5-Cyanopyridin-2-yl)-3-methyl-1H-1,2,4-triazol-5-yl]ethyl}-3-hydroxy-5-(trifluoromethyl)benzamide] |  |  | 100 | pest or weed control at 20 µg/tick [6]: 100%
C[C@H](NC(=O)c1cc(Cl)cc(Oc2ccccc2)c1)c1ncnn1-c1ccc(C#N)cn1 [Example I-7] |  |  | 100 | pest or weed control at 5 µg/cm2, 5 µg/cm2 [1]: 100%; pest or weed control at 20 µg/tick [6]: 100%
Cc1nc([C@H](C)NC(=O)c2cc(OCc3ccccc3Cl)cc(C(F)(F)F)c2)n(-c2ccc(C#N)cn2)n1 [Example I-16, 3-[(2-Chlorobenzyl)oxy]-N-{(1S)-1-[1-(5-cyanopyridin-2-yl)-3-methyl-1H-1,2,4-triazol-5-yl]ethyl}(trifluoromethyl)benzamide] |  |  | 100 | pest or weed control at 20 µg/tick [6]: 100%
CNC(=O)c1cnc(-n2ncnc2[C@H](C)NC(=O)c2cc(OC(F)(F)F)cc(C(C)(C)C#N)c2)s1 [Example I-74] | 100 | 100 |  | mortality at 100 g/ha [4]: 100%; mortality at 100 g/ha [5]: 100%; mortality at 500 g/ha [5]: 100%
C[C@H](NC(=O)c1cc(C(C)(C)C#N)cc(S(C)(=O)=O)c1)c1ncnn1-c1ncc(C#N)s1 [Example I-55] |  | 100 |  | mortality at 100 g/ha [5]: 90%; mortality at 500 g/ha [5]: 90%
C[C@H](NC(=O)c1cc(Cl)cc(C(=O)C2CC2)c1)c1ncnn1-c1ncc(C#N)s1 [Example I-83] | 100 | 100 |  | 
C[C@H](NC(=O)c1cc(Br)cc(C(F)(F)C2CC2)c1)c1ncnn1-c1ncc(C#N)s1 [Example I-53] | 100 | 100 |  | mortality at 20 mg/m2 [7]: 80 to 100%
CC(=O)Oc1cc(Cl)cc(C(=O)N[C@@H](C)c2ncnn2-c2ccc(C#N)cn2)c1 [Example I-11] |  |  | 80 | pest or weed control at 20 µg/tick [6]: 80%
Cc1nc([C@H](C)NC(=O)c2cc(OCc3cccc(Cl)c3)cc(C(F)(F)F)c2)n(-c2ccc(C#N)cn2)n1 [Example I-13, 3-[(3-Chlorobenzyl)oxy]-N-{(1S)-1-[1-(5-cyanopyridin-2-yl)-3-methyl-1H-1,2,4-triazol-5-yl]ethyl}-5-(trifluoromethyl)benzamide] | 100 |  | 80 | pest or weed control at 20 µg/tick [6]: 100%
